Results from ChEMBL document CHEMBL1133461, “ElogPoct: a tool for lipophilicity determination in drug discovery” (J Med Chem, 2000).

How the values were obtained:
[1] = Partition coefficient (logP) (HPLC); conditions: octanol/water
[2] = HPLC capacity factor (k); assay type: ADME
[3] = Partition coefficient (logP); conditions: octanol/water

Row | SMILES | logP [1] | Log k'w | Log K'w [2] | logP [3]
1 | c1ccc2ncccc2c1 [QUINOLINE] | 1.85 |  |  | 
2 | C[C@]12CC[C@H]3[C@@H](CCC4=CC(=O)CC[C@@]43C)[C@@H]1CC[C@@H]2O [TESTOSTERONE] |  | 2.74 |  | 
3 | c1ccc(-c2ccc(C(c3ccccc3)n3ccnc3)cc2)cc1 (stereo unspecified) [BIFONAZOLE] | 4.95 | 4.37 |  | 
4 | C[C@]12CC[C@@H]3c4ccc(O)cc4CC[C@H]3[C@@H]1CC[C@@H]2O [ESTRADIOL] | 3.82 | 3.34 |  | 
5 | Clc1ccccc1C(c1ccccc1)(c1ccccc1)n1ccnc1 [CLOTRIMAZOLE] |  | 4.13 |  | 
6 | Oc1cccc(Cl)c1 |  | 2.49 |  | 
7 | COC1=CC(=O)C[C@@H](C)[C@]12Oc1c(Cl)c(OC)cc(OC)c1C2=O [GRISEOFULVIN] | 2.57 | 2.21 |  | 
8 | O=C1Nc2ccc(Cl)cc2C(c2ccccc2Cl)=NC1O (stereo unspecified) [LORAZEPAM] | 2.74 |  | 2.36 | 
9 | CC(=O)OCC(=O)[C@@]1(O)CC[C@H]2[C@@H]3CCC4=CC(=O)CC[C@]4(C)[C@H]3[C@@H](O)C[C@@]21C [HYDROCORTISONE ACETATE] | 2.26 | 1.93 |  | 2.19
10 | CC/C(=C(/CC)c1ccc(O)cc1)c1ccc(O)cc1 [DIETHYLSTILBESTROL] | 4.72 | 4.16 |  | 
11 | Oc1cc(Cl)cc(Cl)c1 | 3.88 | 3.4 |  | 3.68
12 | NC(=O)N/N=C/c1ccc([N+](=O)[O-])o1 [NITROFURAZONE] | 0.24 | 0.1 |  | 
13 | c1ccc2ccccc2c1 | 3.51 | 3.06 |  | 
14 | NC(=O)N1c2ccccc2C=Cc2ccccc21 [CARBAMAZEPINE] | 2.01 |  | 1.7 | 2.19
15 | CC(=O)CCCCn1c(=O)c2c(ncn2C)n(C)c1=O [PENTOXIFYLLINE] | 0.31 | 0.16 |  | 0.29
16 | CC(=O)c1ccccc1 [ACETOPHENONE] |  | 1.31 |  | 

Row | SMILES | logP [1] | Log k'w | Log K'w [2] | logP [3]
17 | C[C@]12C=CC(=O)C=C1CC[C@@H]1[C@@H]2[C@@H](O)C[C@@]2(C)[C@H]1CC[C@]2(O)C(=O)CO [PREDNISOLONE] | 1.83 | 1.54 |  | 
18 | CN1C(=O)C(O)N=C(c2ccccc2Cl)c2cc(Cl)ccc21 (stereo unspecified) [LORMETAZEPAM] | 2.78 | 2.4 |  | 2.72
19 | CC(=O)Nc1ccc(O)cc1 [ACETAMINOPHEN] | 0.11 |  | -0.02 | 0.51
20 | CSc1ncnc2c1ncn2[C@@H]1O[C@H](CO)[C@@H](O)[C@H]1O | 0.34 | 0.19 |  | 
21 | Cc1ncc([N+](=O)[O-])n1CCO [METRONIDAZOLE] | -0.22 |  | -0.32 | 
22 | C[C@@H]1C[C@H]2[C@@H]3CCC4=CC(=O)C=C[C@]4(C)[C@@]3(F)[C@@H](O)C[C@]2(C)[C@@]1(O)C(=O)CO [DEXAMETHASONE] | 2.37 | 2.03 |  | 
23 | CS(=O)(=O)c1ccc([C@@H](O)[C@@H](CO)NC(=O)C(Cl)Cl)cc1 [THIAMPHENICOL] | -0.13 | -0.24 |  | -0.27
24 | Cn1c(=O)c2c(ncn2C)n(C)c1=O [CAFFEINE] |  | -0.31 |  | 
25 | C[C@]12C=CC(=O)C=C1CC[C@@H]1[C@@H]2C(=O)C[C@@]2(C)[C@H]1CC[C@]2(O)C(=O)CO [PREDNISONE] | 1.47 | 1.21 |  | 
26 | Cc1cccc(N(C)C(=S)Oc2ccc3ccccc3c2)c1 [TOLNAFTATE] | 5.15 | 4.55 |  | 5.4
27 | O=C1CN=C(c2ccccn2)c2cc(Br)ccc2N1 [BROMAZEPAM] | 1.38 |  | 1.13 | 1.65
28 | Brc1cnc2ccccc2c1 | 2.93 | 2.54 |  | 
29 | O=[N+]([O-])c1ccc(/C=N/O)o1 [NIFUROXIME] | 1.36 | 1.11 |  | 1.28
30 | Oc1ncnc2[nH]ncc12 [ALLOPURINOL] | -0.85 |  | -0.89 | 
31 | C[C@]12CCC(=O)C=C1CC[C@@H]1[C@@H]2[C@@H](O)C[C@@]2(C)[C@H]1CC[C@]2(O)C(=O)CO [HYDROCORTISONE] |  | 1.43 |  | 
32 | Cc1cc(=O)n(-c2ccccc2)n1C [ANTIPYRINE] |  |  | 0.09 | 
